Five compounds from patent US20030109504A1, “Treatment of movement disorders with metabotropic glutamate receptors antagonist” (priority 2000, published 2003) can be followed below.

The structures appear in SMILES notation. “Also recorded” adds a separate entry of the source.

Assay [1] concerns reserpine-treated rat model of Parkinson's disease. In words: Locomotion (mobile counts) in reserpine-treated rat model of Parkinson's disease, antagonist combined with chloro-APB or quinpirole. The conditions noted are these: for total mobile counts: antagonist 1 mg/kg plus chloro-APB 0.2 mg/kg, versus vehicle plus chloro-APB (FIG. 1). It is filed as in vivo. The protocol:
The effect of metabotropic glutamate receptor antagonists on the anti-parkinsonian effects of chloro-APB (0.2 mg/kg) or quinpirole (0.1 mg/kg) was assessed in a reserpine-treated rat model of Parkinson's disease.
Male Sprague-Dawley rats were split into two groups A and B. Rats in both groups were rendered parkinsonian by subcutaneous administration of reserpine (3 mg/kg) for 18 hours.
After the 18 hours Group A were treated with either chloro-APB (0.2 mg/kg) or quinpirole (0.1 mg/kg) and then subdivided into groups A1, A2 and A3. These subgroups were additionally administered the following selective metabotropic glutamate receptor antagonists (1 mg/kg):
A1: (RS)-1-Aminoindan-1,5-dicarboxylic acid (AIDA—Group I metabotropic glutamate receptor antagonist);
A2: (2S)-alpha-Ethylglutamic acid (EGLU—Group II metabotropic glutamate receptor antagonist); and
A3: (RS)-alpha-Methylserine-O-phosphate (MSOP—Group III metabotropic glutamate receptor antagonist).
Group B were treated with chloro-APB (0.2 mg/kg) and vehicle for the antagonists only.
The locomotion of the rats in Groups A and B was measured over a one hour period using Benwick locomotor monitors. These locomotion monitors consist of a visually-shielded open-field arena, the perimeter of which is surrounded by a series of infra-red beams arranged at 5 cm intervals. PC-based software (Amlogger) assesses the number of beams broken. The number of beams broken as part of a locomotor movement (mobile counts) or the number of beam breaks while the animal is not locomoting (static counts) were measured. In addition, the system assesses the time for which animals are mobile or static.

Assay [2] relates to MPTP-lesioned marmoset model of Parkinson's disease. In words: Mobility, locomotor activity and dyskinesia in MPTP-lesioned marmoset model of Parkinson's disease, combination with L-DOPA. In kind it is in vivo, Marmosets (Callithrix jacchus). Particulars: MPTP-lesioned marmosets; for L-DOPA-induced mobility and locomotor activity (reversal of parkinsonism): L-DOPA 8 mg/kg with or without SIB-1893 10 mg/kg (FIG. 3). How it is done:
The effect of the mGluR group I (selective for mGlu5) receptor antagonist SIB-1893 in combination with L-DOPA was assessed in the MPTP-lesioned marmoset model of Parkinson's disease. The ability of the traditional anti-parkinsonian agent L-DOPA to alleviate symptoms was compared with the combined therapy.
Marmosets (Callithrix jacchus) (bred in a closed colony at the University of Manchester) are rendered parkinsonian by subcutaneous injection of 2 mg kg^−1 MPTP for 5 consecutive days. The marmosets are allowed to recover for a minimum of 10 weeks until their parkinsonism becomes stable. The degree of activity and disability before and after MPTP treatment is assessed using a combination of scales as described below. Animals are then treated with L-DOPA for at least 3 weeks to prime them to elicit dyskinesia.
1) Activity—a quantitative assessment using computer-based activity monitors was obtained every 5 minutes for the duration of the experiment. p1 2) Parkinsonian disability—non-parametric measures based on the following scales:
Mobility score: 0=no movement, 1=movement of head on the floor of the cage, 2=movement of limbs, but no locomotion, on the floor of the cage, 3=movement of head or trunk on wall of cage or perch, 4=movement of limbs, but no locomotion, on wall of cage or perch, 5=walking around floor of cage or eating from hopper on floor, 6=hopping on floor of cage, 7=climbing onto wall of cage or perch, 8=climbing up and down the walls of the cage or along perch, 9=running, jumping, climbing between cage walls/perch/roof, uses limbs through a wide range of motion and activity.
Dyskinesia score: 0Absent, 1=Mild, fleeting, 2=Moderate, not interfering with normal activity, 3=Marked, at times interfering with normal activity, 4=Severe, continuous, replacing normal activity.
The behavioural tests were assessed every 30 minutes for 4 hours, by post hoc analysis of video-recordings by an observer blinded to the treatment.
The treatments were randomised such that on each day all six marmosets received one of the treatments. […]

Setting [3] is: reserpine-treated Sprague-Dawley rats, one hour.

`NC1(C(=O)O)CCc2cc(C(=O)O)ccc21` (racemic) [AIDA, (RS)-1-Aminoindan-1,5-dicarboxylic acid]: the total mobile counts entry in assay [1] (setting [3]) is “greater than those treated with vehicle and chloro-APB only”. In assay [1] (reserpine-treated rats, combination with chloro-APB or quinpirole), the “efficacy in combination therapy (overall conclusion)” value is given as “particularly effective”. `CC(N)(COP(=O)(O)O)C(=O)O` (racemic) [MSOP, (RS)-alpha-Methylserine-O-phosphate]: the total mobile counts result in assay [1] (setting [3]) is “greater than those treated with vehicle and chloro-APB only”. As for `CC[C@](N)(CCC(=O)O)C(=O)O` [EGLU, (2S)-alpha-Ethylglutamic acid], in assay [1] (reserpine-treated Sprague-Dawley rats, antagonist 1 mg/kg plus quinpirole 0.1 mg/kg, one hour, versus vehicle plus quinpirole (FIG. 2)), the “mobility (locomotion)” value was “greater mobility than those treated with vehicle and quinpirole only”.

Turning to `N[C@@H](Cc1ccc(O)c(O)c1)C(=O)O` [L-DOPA], the “L-DOPA-induced mobility and locomotor activity (reversal of parkinsonism)” value in assay [2] was “good anti-parkinsonian action”. With `Cc1cccc(C=Cc2ccccc2)n1` [SIB-1893, 2-Methyl-6-(2-phenylethenyl)pyridine], in assay [2] (L-DOPA 8 mg/kg plus SIB-1893 10 mg/kg versus vehicle plus L-DOPA, p<0.05 (FIG. 4)), the L-DOPA-induced dyskinesia result is reported as “significantly less severe L-DOPA-induced dyskinesia”. Moreover, the “L-DOPA-induced mobility and locomotor activity (reversal of parkinsonism)” value in assay [2] was “good anti-parkinsonian action; also recorded: as effective as L-DOPA alone in reversing parkinsonism”.
